# Laboratory results as given in ChEMBL document CHEMBL1123701, “Synthesis and quantitative structure-activity relationship analysis of N-triiodoallyl- and N-iodopropargylazoles. New antifungal agents” (1987).
# Tested on: Aspergillus fumigatus
# Assay: Antifungal activity against Aspergillus fumigatus Saito strain
# Assay type: functional
row,SMILES,MIC [µg/mL]
1,CCCCCCCc1nnnn1CC#CI,0.78
2,CCCCCc1nnn(CC#CI)n1,0.78
3,O=[N+]([O-])c1c(Cl)c(Cl)n(CC#CI)c1Cc1cc(Cl)cc(Cl)c1O,12.5
4,IC#CCn1nnc(C2CC2)n1,0.39
5,Cc1cc(C)n(CC#CI)n1,0.78
6,CCc1nnn(CC(I)=C(I)I)n1,0.2
7,CCCc1nnn(CC#CI)n1,0.1
8,CC(C)Cc1nnn(CC#CI)n1,0.78
9,Oc1ccc(-c2nnn(CC#CI)n2)cc1,0.39
10,Cc1nnn(CC(I)=C(I)I)n1,0.39
11,Clc1ccc(-c2nnnn2CC#CI)cc1,0.39
12,O=[N+]([O-])c1cn(CC(I)=C(I)I)c(Cl)c1Cl,0.2
13,O=[N+]([O-])c1cccn1CC(I)=C(I)I,0.39
14,O=[N+]([O-])c1ccn(CC(I)=C(I)I)c1,0.2
15,IC(I)=C(I)Cn1ccnc1,1.56
16,O=[N+]([O-])c1cn(CC(I)=C(I)I)cn1,0.39
17,COC(=O)c1cccn1CC#CI,1.56
18,IC(I)=C(I)Cn1ncnn1,0.2

# Tested on: Candida albicans
# Assay: Antifungal activity against Candida albicans C-A-24 strain
# Assay type: functional
row,SMILES,MIC [µg/mL]
1,CCCCCCCc1nnnn1CC#CI,6.25
2,O=[N+]([O-])c1c(Cl)c(Cl)n(CC#CI)c1Cc1cc(Cl)cc(Cl)c1O,25
3,IC#CCn1nnc(C2CC2)n1,1.56
4,Cc1cc(C)n(CC#CI)n1,6.25
5,CCCCCCCc1nnn(CC(I)=C(I)I)n1,12.5
6,CCc1nnn(CC(I)=C(I)I)n1,0.78
7,CC(C)(C)c1nnn(CC(I)=C(I)I)n1,> 25
8,CC(C)Cc1nnn(CC#CI)n1,3.13
9,CC(C)c1nnn(CC(I)=C(I)I)n1,6.25
10,Oc1ccc(-c2nnn(CC#CI)n2)cc1,6.25
11,Cc1nnn(CC(I)=C(I)I)n1,0.78
12,Cc1nnnn1CC(I)=C(I)I,3.13
13,CCCCCCCc1nnnn1CC(I)=C(I)I,> 25
14,Clc1ccc(-c2nnnn2CC#CI)cc1,1.56
15,O=[N+]([O-])c1cn(CC(I)=C(I)I)c(Cl)c1Cl,0.39
16,O=[N+]([O-])c1cccn1CC(I)=C(I)I,0.39
17,IC(I)=C(I)Cn1nnc(-c2ccccc2)n1,12.5
18,IC(I)=C(I)Cn1cnnn1,3.13
19,O=[N+]([O-])c1ccn(CC(I)=C(I)I)c1,0.2
20,IC(I)=C(I)Cn1ccnc1,1.56
21,O=[N+]([O-])c1nccn1CC(I)=C(I)I,0.78
22,O=[N+]([O-])c1cn(CC(I)=C(I)I)cn1,3.13
23,COC(=O)c1cccn1CC#CI,3.13
24,IC(I)=C(I)Cn1ncnn1,0.2

# Tested on: Trichophyton interdigitale
# Assay: Antifungal activity towards Trichophyton interdigitale
# Assay type: functional
row,SMILES,MIC [µg/mL]
1,CCCCCCCc1nnnn1CC#CI,0.1
2,CCCCCc1nnn(CC#CI)n1,0.1
3,O=[N+]([O-])c1c(Cl)c(Cl)n(CC#CI)c1Cc1cc(Cl)cc(Cl)c1O,3.13
4,IC#CCn1nnc(C2CC2)n1,0.78
5,CCCc1nnnn1CC(I)=C(I)I,0.1
6,Cc1cc(C)n(CC#CI)n1,0.78
7,CCCCCc1nnn(CC(I)=C(I)I)n1,0.2
8,CCc1nnn(CC(I)=C(I)I)n1,0.1
9,COc1ccc(-c2nnn(CC#CI)n2)cc1,0.1
10,CCCc1nnn(CC#CI)n1,0.1
11,Clc1ccc(-c2nnn(CC#CI)n2)cc1,0.2
12,CCCc1nnn(CC(I)=C(I)I)n1,0.1
13,CC(C)Cc1nnn(CC#CI)n1,0.39
14,Oc1ccc(-c2nnn(CC#CI)n2)cc1,0.1
15,Cc1nnn(CC(I)=C(I)I)n1,0.2
16,CCCCCCCc1nnnn1CC(I)=C(I)I,0.1
17,CCCCCc1nnnn1CC(I)=C(I)I,0.1
18,Clc1ccc(-c2nnnn2CC#CI)cc1,0.39
19,O=[N+]([O-])c1cccn1CC(I)=C(I)I,0.1
20,IC(I)=C(I)Cn1nnc(-c2ccccc2)n1,3.13
21,IC(I)=C(I)Cn1ccnc1,3.13
22,O=[N+]([O-])c1cn(CC(I)=C(I)I)cn1,0.39
23,COC(=O)c1cccn1CC#CI,1.56
24,IC(I)=C(I)Cn1ncnn1,0.1

# Tested on: Cryptococcus neoformans
# Assay: Antifungal activity against Cryptococcus neoformans Cr-1 strain
# Assay type: functional
row,SMILES,MIC [µg/mL]
1,CCCCCCCc1nnnn1CC#CI,1.56
2,O=[N+]([O-])c1c(Cl)c(Cl)n(CC#CI)c1Cc1cc(Cl)cc(Cl)c1O,3.13
3,IC#CCn1nnc(C2CC2)n1,1.56
4,Cc1cc(C)n(CC#CI)n1,3.13
5,CCc1nnn(CC(I)=C(I)I)n1,0.78
6,CC(C)(C)c1nnn(CC(I)=C(I)I)n1,> 25
7,COc1ccc(-c2nnn(CC#CI)n2)cc1,25
8,CC(C)Cc1nnn(CC#CI)n1,3.13
9,Oc1ccc(-c2nnn(CC#CI)n2)cc1,12.5
10,CCCCCCCc1nnnn1CC(I)=C(I)I,> 25
11,CCCCCc1nnnn1CC(I)=C(I)I,> 25
12,O=[N+]([O-])c1cn(CC(I)=C(I)I)c(Cl)c1Cl,0.2
13,O=[N+]([O-])c1cccn1CC(I)=C(I)I,6.25
14,IC(I)=C(I)Cn1cnnn1,3.13
15,O=[N+]([O-])c1cn(CC(I)=C(I)I)cn1,6.25
16,COC(=O)c1cccn1CC#CI,6.25

# Tested on: Trichophyton benhamiae
# Assay: Antifungal activity towards Trichophyton mentagrophytes 530324 strain
# Assay type: functional, Arthroderma benhamiae
row,SMILES,MIC [µg/mL]
1,CCCCCCCc1nnnn1CC#CI,0.2
2,CCCCCc1nnn(CC#CI)n1,0.1
3,O=[N+]([O-])c1c(Cl)c(Cl)n(CC#CI)c1Cc1cc(Cl)cc(Cl)c1O,3.13
4,IC#CCn1nnc(C2CC2)n1,0.39
5,CCCc1nnnn1CC(I)=C(I)I,0.1
6,Cc1cc(C)n(CC#CI)n1,0.78
7,CCCCCc1nnn(CC(I)=C(I)I)n1,0.1
8,CCCCCCCc1nnn(CC(I)=C(I)I)n1,0.78
9,CCc1nnn(CC(I)=C(I)I)n1,0.2
10,CC(C)(C)c1nnn(CC(I)=C(I)I)n1,0.39
11,COc1ccc(-c2nnn(CC#CI)n2)cc1,0.1
12,CCCc1nnn(CC#CI)n1,0.1
13,Clc1ccc(-c2nnn(CC#CI)n2)cc1,0.1
14,CC(C)c1nnnn1CC(I)=C(I)I,3.13
15,CCCc1nnn(CC(I)=C(I)I)n1,0.1
16,CC(C)Cc1nnn(CC#CI)n1,0.39
17,CC(C)c1nnn(CC(I)=C(I)I)n1,0.78

row,SMILES,MIC [µg/mL]
1,Oc1ccc(-c2nnn(CC#CI)n2)cc1,0.2
2,Cc1nnn(CC(I)=C(I)I)n1,0.2
3,Cc1nnnn1CC(I)=C(I)I,0.78
4,CCCCCCCc1nnnn1CC(I)=C(I)I,0.1
5,CCCCCc1nnnn1CC(I)=C(I)I,0.1
6,Clc1ccc(-c2nnnn2CC#CI)cc1,0.2
7,O=[N+]([O-])c1cn(CC(I)=C(I)I)c(Cl)c1Cl,0.2
8,O=[N+]([O-])c1cccn1CC(I)=C(I)I,0.2
9,Cc1ccc(-c2nnn(CC#CI)n2)cc1,0.2
10,IC(I)=C(I)Cn1nnc(-c2ccccc2)n1,1.56
11,IC(I)=C(I)Cn1cnnn1,0.39
12,O=[N+]([O-])c1ccn(CC(I)=C(I)I)c1,0.2
13,IC(I)=C(I)Cn1ccnc1,1.56
14,O=[N+]([O-])c1nccn1CC(I)=C(I)I,0.78
15,O=[N+]([O-])c1cn(CC(I)=C(I)I)cn1,0.78
16,COC(=O)c1cccn1CC#CI,1.56
17,IC(I)=C(I)Cn1ncnn1,0.1
